Measurements: patent US12077503B2, “Substituted cyclic amides and their use as herbicides” (FMC CORPORATION, priority 2015, dated 2024)

Assays:
Type in all cases: in vivo
[1] = test system: barnyardgrass (Echinochloa crus-galli); experiment: Test A preemergence; conditions: Echinochloa crus-galli, pre-emergence, 240 h, 0 to 100 scale where 0 is no effect and 100 is complete control, read-out: Barnyardgrass plant response rating; for pest or weed control at 31 g/ha: 31 g ai/ha, Preemergence; for pest or weed control at 125 g/ha: 125 g ai/ha, preemergence, approx. 10 d
Outline: (§1)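 Seeded soil received test chemicals as a preemergence directed spray, and seedlings at one to two leaves, 2–10 cm tall, received them postemergence, in a non-phytotoxic, surfactant-containing solvent mixture. Pots were held in a greenhouse for approximately 10 d, then rated for injury from 0, no effect, to 100, complete control.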

[2] = test system: giant foxtail (Setaria faberii); experiment: Test A preemergence; conditions: Setaria faberi, pre-emergence, 240 h, 0 to 100 scale where 0 is no effect and 100 is complete control, read-out: Foxtail, Giant plant response rating; for pest or weed control at 31 g/ha: 31 g ai/ha, Preemergence; for pest or weed control at 125 g/ha: 125 g ai/ha, preemergence, approx. 10 d
Outline: as §1

[3] = test system: ryegrass, Italian (Italian ryegrass, Lolium multiflorum); experiment: Test A preemergence; conditions: Lolium multiflorum, pre-emergence, 240 h, 0 to 100 scale where 0 is no effect and 100 is complete control, read-out: Ryegrass, Italian plant response rating; for pest or weed control at 31 g/ha: 31 g ai/ha, Preemergence; for pest or weed control at 125 g/ha: 125 g ai/ha, preemergence, approx. 10 d
Outline: as §1

[4] = test system: ragweed (common ragweed, Ambrosia elatior); experiment: Test A preemergence; conditions: Ambrosia artemisiifolia, pre-emergence, 240 h, 0 to 100 scale where 0 is no effect and 100 is complete control, read-out: Ragweed plant response rating; for pest or weed control at 31 g/ha: 31 g ai/ha, Preemergence; for pest or weed control at 125 g/ha: 125 g ai/ha, preemergence, approx. 10 d
Outline: as §1

Kochia (Kochia scoparia) [5] = experiment: Test A preemergence; conditions: Bassia scoparia, pre-emergence, 240 h, 0 to 100 scale where 0 is no effect and 100 is complete control, read-out: Kochia plant response rating; for pest or weed control at 31 g/ha: 31 g ai/ha, Preemergence; for pest or weed control at 125 g/ha: 125 g ai/ha, preemergence, approx. 10 d
Outline: as §1

[6] = test system: pigweed (Amaranthus retroflexus); experiment: Test A preemergence; conditions: Amaranthus retroflexus, pre-emergence, 240 h, 0 to 100 scale where 0 is no effect and 100 is complete control, read-out: Pigweed plant response rating; for pest or weed control at 31 g/ha: 31 g ai/ha, Preemergence; for pest or weed control at 125 g/ha: 125 g ai/ha, preemergence, approx. 10 d
corn (Zea mays) = experiment: Test A postemergence; conditions: Zea mays, post-emergence, 240 h; for plant injury at 125 g/ha: 125 g ai/ha, postemergence, visual injury vs untreated controls after approx. 10 d, 0 = no effect, 100 = complete control, read-out: Corn plant response rating (0 to 100 scale); for Corn plant response rating (crop injury, 0 = no effect, 100 = complete kill) at 31 g/ha: Postemergence, 31 g ai/ha, visual injury after approx. 10 d, 0 to 100 scale, 100 complete control
Outline: as §1

[7] = test system: barnyardgrass (Echinochloa crus-galli); experiment: Test A postemergence; conditions: Echinochloa crus-galli, post-emergence, 240 h; for pest or weed control at 125 g/ha: 125 g ai/ha, postemergence, visual injury vs untreated controls after approx. 10 d, 0 = no effect, 100 = complete control, read-out: Barnyardgrass plant response rating (0 to 100 scale); for pest or weed control at 31 g/ha: Postemergence, 31 g ai/ha, visual injury after approx. 10 d, 0 to 100 scale, 0 no effect, 100 complete control, read-out: Plant response rating, Barnyardgrass
Outline: as §1

[8] = test system: giant foxtail (Setaria faberii); experiment: Test A postemergence; conditions: Setaria faberi, post-emergence, 240 h; for pest or weed control at 125 g/ha: 125 g ai/ha, postemergence, visual injury vs untreated controls after approx. 10 d, 0 = no effect, 100 = complete control, read-out: Foxtail, Giant plant response rating (0 to 100 scale); for pest or weed control at 31 g/ha: Postemergence, 31 g ai/ha, visual injury after approx. 10 d, 0 to 100 scale, 0 no effect, 100 complete control, read-out: Plant response rating, Foxtail, Giant
Outline: as §1

[9] = test system: Galium (catchweed bedstraw, Galium aparine); experiment: Test A postemergence; conditions: Galium, post-emergence, 240 h; for pest or weed control at 125 g/ha: 125 g ai/ha, postemergence, visual injury vs untreated controls after approx. 10 d, 0 = no effect, 100 = complete control, read-out: Galium plant response rating (0 to 100 scale); for pest or weed control at 31 g/ha: Postemergence, 31 g ai/ha, visual injury after approx. 10 d, 0 to 100 scale, 0 no effect, 100 complete control, read-out: Plant response rating, Galium
Outline: as §1

[10] = test system: ryegrass, Italian (Italian ryegrass, Lolium multiflorum); experiment: Test A postemergence; conditions: Lolium multiflorum, post-emergence, 240 h, 125 g ai/ha, postemergence, visual injury vs untreated controls after approx. 10 d; 0 = no effect, 100 = complete control; read-out: Ryegrass, Italian plant response rating (0 to 100 scale)
Outline: as §1

[11] = test system: wheat (Triticum aestivum); experiment: Test A postemergence; conditions: Triticum aestivum, post-emergence, 240 h, 125 g ai/ha, postemergence, visual injury vs untreated controls after approx. 10 d; 0 = no effect, 100 = complete control; read-out: Wheat plant response rating (0 to 100 scale)
Outline: as §1

[12] = test system: ragweed (common ragweed, Ambrosia elatior); experiment: Test A postemergence; conditions: Ambrosia artemisiifolia, post-emergence, 240 h, 125 g ai/ha, postemergence, visual injury vs untreated controls after approx. 10 d; 0 = no effect, 100 = complete control; read-out: Ragweed plant response rating (0 to 100 scale)
Outline: as §1

Kochia (Kochia scoparia) [13] = experiment: Test A postemergence; conditions: Bassia scoparia, post-emergence, 240 h; for pest or weed control at 125 g/ha: 125 g ai/ha, postemergence, visual injury vs untreated controls after approx. 10 d, 0 = no effect, 100 = complete control, read-out: Kochia plant response rating (0 to 100 scale); for pest or weed control at 31 g/ha: Postemergence, 31 g ai/ha, visual injury after approx. 10 d, 0 to 100 scale, 0 no effect, 100 complete control, read-out: Plant response rating, Kochia
Outline: as §1

[14] = test system: pigweed (Amaranthus retroflexus); experiment: Test A postemergence; conditions: Amaranthus retroflexus, post-emergence, 240 h, 125 g ai/ha, postemergence, visual injury vs untreated controls after approx. 10 d; 0 = no effect, 100 = complete control; read-out: Pigweed plant response rating (0 to 100 scale)
Outline: as §1

[15] = test system: blackgrass (Alopecurus myosuroides); experiment: Test A postemergence; conditions: Alopecurus myosuroides, post-emergence, 240 h; for pest or weed control at 125 g/ha: 125 g ai/ha, postemergence, visual injury vs untreated controls after approx. 10 d, 0 = no effect, 100 = complete control, read-out: Blackgrass plant response rating (0 to 100 scale); for pest or weed control at 31 g/ha: Postemergence, 31 g ai/ha, visual injury after approx. 10 d, 0 to 100 scale, 0 no effect, 100 complete control, read-out: Plant response rating, Blackgrass
Outline: as §1

[16] = test system: barnyardgrass (Echinochloa crus-galli); experiment: Test B flooded paddy test; conditions: Echinochloa crus-galli, 250 g ai/ha, Flood; 0 to 100 scale where 0 is no effect and 100 is complete control; read-out: Barnyardgrass plant response rating
Outline: (§2)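 Plants at 2-leaf stage flooded to 3 cm above soil, with compounds applied directly to paddy water and that depth maintained. Plants kept in greenhouse 13–15 d. Visual rating versus controls on a 0 (no effect) to 100 (complete control) scale.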

[17] = test system: ducksalad (Heteranthera limosa); experiment: Test B flooded paddy test; conditions: Heteranthera limosa, 250 g ai/ha, Flood; 0 to 100 scale where 0 is no effect and 100 is complete control; read-out: Ducksalad plant response rating
Outline: as §2

[18] = test system: sedge, umbrella (small-flower umbrella sedge, Cyperus difformis); experiment: Test B flooded paddy test; conditions: Cyperus difformis, 250 g ai/ha, Flood; 0 to 100 scale where 0 is no effect and 100 is complete control; read-out: Sedge, Umbrella plant response rating
Outline: as §2

rice (Oryra sativa) = experiment: Test B flooded paddy test; conditions: Oryza sativa, 250 g ai/ha, Flood; 0 to 100 scale where 0 is no effect and 100 is complete control; read-out: Rice plant response rating
Outline: as §2

Row | Structure (SMILES) | pest or weed control at 31 g/ha [1] [%] | pest or weed control at 125 g/ha [1] [%] | pest or weed control at 31 g/ha [2] [%] | pest or weed control at 125 g/ha [2] [%] | pest or weed control at 31 g/ha [3] [%] | pest or weed control at 125 g/ha [3] [%] | pest or weed control at 31 g/ha [4] [%] | pest or weed control at 125 g/ha [4] [%] | pest or weed control at 31 g/ha (Kochia (Kochia scoparia) [5]) [%] | pest or weed control at 125 g/ha (Kochia (Kochia scoparia) [5]) [%] | pest or weed control at 31 g/ha [6] [%] | pest or weed control at 125 g/ha [6] [%] | plant injury at 125 g/ha (corn (Zea mays)) [%] | Corn plant response rating (crop injury, 0 = no effect, 100 = complete kill) at 31 g/ha (corn (Zea mays)) [%] | pest or weed control at 125 g/ha [7] [%] | pest or weed control at 31 g/ha [7] [%] | pest or weed control at 125 g/ha [8] [%] | pest or weed control at 31 g/ha [8] [%] | pest or weed control at 125 g/ha [9] [%] | pest or weed control at 31 g/ha [9] [%] | other results
1 | CN1C[C@H](c2ccc(C(F)(F)F)c(O)c2)[C@@H](C(=O)Nc2cccc(F)c2F)C1=O [Compound 1173] | 60 | 90 | 30 | 80 | 0 | 30 | 0 | 40 | 0 | 20 | 0 | 0 | 0 | 0 | 70 | 50 | 80 | 70 | 50 | 0 | pest or weed control at 125 g/ha [10]: 20%; plant injury at 125 g/ha [11]: 0%; pest or weed control at 125 g/ha [12]: 10%; pest or weed control at 125 g/ha (Kochia (Kochia scoparia) [13]): 50%; pest or weed control at 31 g/ha (Kochia (Kochia scoparia) [13]): 30%; pest or weed control at 125 g/ha [14]: 50%; pest or weed control at 125 g/ha [15]: 0%; pest or weed control at 31 g/ha [15]: 0%; pest or weed control at 250 g/ha [16]: 60%; pest or weed control at 250 g/ha [17]: 90%; pest or weed control at 250 g/ha [18]: 0%; pest or weed control at 250 g/ha (rice (Oryra sativa)): 25%
2 | CN1CC[C@H](c2ccc3c(c2)OC(F)(F)O3)[C@@H](C(=O)Nc2cccc(Cl)c2F)C1=O [Compound 1174] | 80 | 100 | 80 | 90 | 0 | 40 | 0 | 0 | 0 | 0 | 0 | 0 | 50 | 0 | 70 | 70 | 80 | 40 | 0 | 0 | pest or weed control at 125 g/ha [10]: 0%; plant injury at 125 g/ha [11]: 30%; pest or weed control at 125 g/ha [12]: 0%; pest or weed control at 125 g/ha (Kochia (Kochia scoparia) [13]): 0%; pest or weed control at 31 g/ha (Kochia (Kochia scoparia) [13]): 0%; pest or weed control at 125 g/ha [14]: 0%; pest or weed control at 125 g/ha [15]: 0%; pest or weed control at 31 g/ha [15]: 0%; pest or weed control at 250 g/ha [16]: 70%; pest or weed control at 250 g/ha [17]: 90%; pest or weed control at 250 g/ha [18]: 0%; pest or weed control at 250 g/ha (rice (Oryra sativa)): 20%
